From paper PMC9960821, “Evaluation of Rhenium and Technetium-99m Complexes Bearing Quinazoline Derivatives as Potential EGFR Agents” (Molecules, 2023)

Experiments:
[1] = Biodistribution in healthy Swiss Albino mice after intravenous injection; type: in vivo; conditions: i.v.
Method: The pharmacokinetic profile of complexes 5b and 7b was evaluated in Swiss Albino healthy male mice at 5, 60, and 240 min post intravenous injection. Table 4 presents the results of the biodistribution studies expressed as % Injected Dose (ID)/g ± Standard Deviation (±SD). […] The high lipophilicity characterizing both complexes justifies the rapid hepatobiliary excretion, given the decreasing activity in the liver and the increasing amount of radioactivity in the intestines. Complex 5b presented faster clearance and elimination in the intestines at 60 min p.i. 34.05% of the radioactivity excreted, compared to 29.89% at 240 min p.i. of complex 7b. Radioactivity in the urine remained low in general, however, the lower logD7.4 value of complex 7b explains the relatively higher activity in the urines (7.88 ± 0.71%) as it is slightly more hydrophilic than 5b. Moreover, the low uptake in the brain indicates almost no blood-brain barrier penetration, although the complexes have favorable physicochemical characteristics.
All the biodistribution experiments were carried out in compliance with the national laws and European protocols (2010/63/EU) related to the conduct of animal experimentation. Nine healthy Swiss Albino mice (male, 30 ± 3 g), divided into three groups of three, were injected with the HPLC-purified 5b or 7b complex in saline with 10% EtOH (0.1 mL, ~75 kBq) through the tail vein. For each group, the animals were sacrificed by cardiectomy under slight ether anesthesia 5, 60, and 240 min after the injection. The organs of interest were excised, weighed, and counted in an automatic gamma counter. The bladder and excreted urine were not weighed. The stomach and intestines were not emptied of food contents prior to radioactivity measurements. The percentage of injected dose per organ (%ID/organ) was calculated by comparison of sample radioactivity to standard solutions containing 10% of the injected dose. The calculation for blood and muscle was based on measured activity, sample weight, and body composition data (considering that blood and muscle comprise 7 and 43% of body weight). The percentage of injected dose per gram (%ID/g) was calculated by dividing the %ID/organ by the weight of the organ or tissue.

[2] = Cysteine and histidine challenge of 99mTc complexes (RP-HPLC); type: physicochemical
Method: The stability of complexes 5b and 7b was studied in their reaction mixture and after isolation by HPLC for up to 24 h.
Cysteine and histidine challenge: Histidine (100 µL, 1 × 10^−2 M) or cysteine (100 µL, 1 × 10^−2 M) solution in 0.1 M PBS was mixed with 100 µL (50–120 MBq) of the RP-HPLC isolated ^99mTc complexes in 0.1 M PBS (800 µL). The mixtures were incubated at 37 °C for up to 24 h and analyzed by RP-HPLC at 1, 6, and 24 h intervals.

[3] = molecular target: T1, EGFR (Homo sapiens, UniProt P00533); assay: Inhibition of EGFR phosphorylation in intact A431 cells (immunoblotting); type: cell-based; conditions: 2 h compound then EGF 20 ng/mL 5 min, Western blot
T1 construct: by immunoblotting in intact A431 cells that overexpress EGFR; endogenous in cells; host or cells: A431 (human epidermoid vulvar carcinoma)
T1 sequence (P00533 25-1210): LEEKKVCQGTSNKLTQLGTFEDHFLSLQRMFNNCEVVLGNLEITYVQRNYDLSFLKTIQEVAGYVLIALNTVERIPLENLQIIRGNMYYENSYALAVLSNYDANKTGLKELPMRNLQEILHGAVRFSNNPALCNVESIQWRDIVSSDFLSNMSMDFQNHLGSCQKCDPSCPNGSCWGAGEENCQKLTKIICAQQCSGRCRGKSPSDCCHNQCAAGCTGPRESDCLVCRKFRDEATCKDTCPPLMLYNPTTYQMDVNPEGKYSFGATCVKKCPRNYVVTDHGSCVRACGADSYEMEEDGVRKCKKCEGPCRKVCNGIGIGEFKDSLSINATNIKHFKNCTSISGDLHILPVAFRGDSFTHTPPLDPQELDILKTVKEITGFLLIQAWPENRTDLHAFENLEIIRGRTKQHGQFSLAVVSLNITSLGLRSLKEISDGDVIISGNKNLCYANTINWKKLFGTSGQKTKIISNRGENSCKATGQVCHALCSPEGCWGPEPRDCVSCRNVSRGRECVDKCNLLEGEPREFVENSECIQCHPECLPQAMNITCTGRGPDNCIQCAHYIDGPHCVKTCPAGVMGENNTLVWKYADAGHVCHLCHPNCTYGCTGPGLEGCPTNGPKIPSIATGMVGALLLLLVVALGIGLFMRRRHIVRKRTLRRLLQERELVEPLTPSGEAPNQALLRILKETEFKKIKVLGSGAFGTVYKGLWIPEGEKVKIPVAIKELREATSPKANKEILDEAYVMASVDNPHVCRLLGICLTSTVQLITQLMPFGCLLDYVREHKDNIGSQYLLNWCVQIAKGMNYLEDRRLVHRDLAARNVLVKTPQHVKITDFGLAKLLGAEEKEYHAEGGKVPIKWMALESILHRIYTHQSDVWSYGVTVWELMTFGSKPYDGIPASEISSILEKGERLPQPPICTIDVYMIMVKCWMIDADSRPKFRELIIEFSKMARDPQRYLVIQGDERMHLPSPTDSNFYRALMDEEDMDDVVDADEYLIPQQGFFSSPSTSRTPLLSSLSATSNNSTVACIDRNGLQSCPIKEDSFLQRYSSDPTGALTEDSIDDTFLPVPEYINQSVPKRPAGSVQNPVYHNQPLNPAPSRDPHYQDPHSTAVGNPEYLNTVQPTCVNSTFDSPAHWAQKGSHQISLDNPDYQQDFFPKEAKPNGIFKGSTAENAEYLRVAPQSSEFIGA
Method: Complex 5a was evaluated for its potency to inhibit EGFR phosphorylation in various concentrations by immunoblotting in intact A431 cells that overexpress EGFR (Figure 3). In addition, the percentage of EGFR phosphorylation was calculated, and a dose-response curve was performed (Figure 4).
Cell line. The in vitro biological studies were established using the human epidermoid vulvar carcinoma A431 cell line, which overexpresses EGFR. Cells were available in our laboratory from previous studies. Cells were maintained in high glucose D-MEM medium with L-glutamine (PAA Laboratories GmbH, Pasching, Austria) and supplemented with 10% fetal bovine serum (PAA Laboratories GmbH) and penicillin/streptomycin (PAA Laboratories GmbH) 100 UI/100 μg per mL, in 5% CO2 incubator at 37 °C.
The inhibition of EGFR phosphorylation was studied as described in the literature. A431 cells (5 × 10^5 cells/well) were seeded in 6-well plates and incubated for 24 h. Then, the medium was replaced with fresh medium without fetal bovine serum. […] Protein band quantification was performed using Image-J software, and the percentage of EGFR phosphorylation inhibition was calculated using GraphPad Prism 9.0 software.

In vivo stability (low spleen and stomach radioactivity; no oxidation to pertechnetate/TcO2) [1]: stable in vivo | Blood %Injected Dose/g ([1]; 5 min): 0.85 ± 0.23 %Injected Dose/g | Brain %Injected Dose/g ([1]; 5 min): 0.05 ± 0.02 %Injected Dose/g | Heart %Injected Dose/g ([1]; 5 min): 0.80 ± 0.12 %Injected Dose/g | Intestines %Injected Dose/g ([1]; 5 min): 9.22 ± 2.19 %Injected Dose/g | Kidneys %Injected Dose/g ([1]; 5 min): 8.49 ± 1.33 %Injected Dose/g | Liver %Injected Dose/g ([1]; 5 min): 27.68 ± 2.32 %Injected Dose/g | Lungs %Injected Dose/g ([1]; 5 min): 0.97 ± 0.20 %Injected Dose/g | Muscle %Injected Dose/g ([1]; 5 min): 0.19 ± 0.05 %Injected Dose/g | Pancreas %Injected Dose/g ([1]; 5 min): 0.63 ± 0.09 %Injected Dose/g | Spleen %Injected Dose/g ([1]; 5 min): 0.63 ± 0.09 %Injected Dose/g | Stomach %Injected Dose/g ([1]; 5 min): 0.72 ± 0.25 %Injected Dose/g | Urine % ID ([1]; 5 min): 0.09 ± 0.06 % ID | Blood %Injected Dose/g ([1]; 60 min): 0.14 ± 0.03 %Injected Dose/g | Brain %Injected Dose/g ([1]; 60 min): 0.03 ± 0.00 %Injected Dose/g | Heart %Injected Dose/g ([1]; 60 min): 0.13 ± 0.03 %Injected Dose/g | Intestines %Injected Dose/g ([1]; 60 min): 34.05 ± 2.05 %Injected Dose/g | Kidneys %Injected Dose/g ([1]; 60 min): 1.28 ± 0.17 %Injected Dose/g | Liver %Injected Dose/g ([1]; 60 min): 1.24 ± 0.24 %Injected Dose/g | Lungs %Injected Dose/g ([1]; 60 min): 0.13 ± 0.03 %Injected Dose/g | Muscle %Injected Dose/g ([1]; 60 min): 0.08 ± 0.01 %Injected Dose/g | Pancreas %Injected Dose/g ([1]; 60 min): 0.10 ± 0.03 %Injected Dose/g | Spleen %Injected Dose/g ([1]; 60 min): 0.11 ± 0.01 %Injected Dose/g | Stomach %Injected Dose/g ([1]; 60 min): 0.64 ± 0.27 %Injected Dose/g | Urine % ID ([1]; 60 min): 1.02 ± 0.17 % ID | Blood %Injected Dose/g ([1]; 240 min): 0.08 ± 0.01 %Injected Dose/g | Brain %Injected Dose/g ([1]; 240 min): 0.02 ± 0.00 %Injected Dose/g | Heart %Injected Dose/g ([1]; 240 min): 0.05 ± 0.01 %Injected Dose/g | Intestines %Injected Dose/g ([1]; 240 min): 37.28 ± 3.50 %Injected Dose/g | Kidneys %Injected Dose/g ([1]; 240 min): 0.06 ± 0.01 %Injected Dose/g | Liver %Injected Dose/g ([1]; 240 min): 0.39 ± 0.08 %Injected Dose/g | Lungs %Injected Dose/g ([1]; 240 min): 0.08 ± 0.01 %Injected Dose/g | Muscle %Injected Dose/g ([1]; 240 min): 0.07 ± 0.07 %Injected Dose/g | Pancreas %Injected Dose/g ([1]; 240 min): 0.09 ± 0.00 %Injected Dose/g | Spleen %Injected Dose/g ([1]; 240 min): 0.07 ± 0.02 %Injected Dose/g | Stomach %Injected Dose/g ([1]; 240 min): 0.60 ± 0.18 %Injected Dose/g | Urine % ID ([1]; 240 min): 1.33 ± 0.14 % ID | Stability after incubation with excess of histidine and cysteine ([2]; 24 h, molar ratio 1/1000, HPLC): > 95% | %RCP in Cysteine for 24 h ([2]; excess cysteine, 37 °C): 99 ± 1% | %RCP in Histidine for 24 h ([2]; excess histidine, 37 °C): 99 ± 1% | IC50 [3]: 0.0261 µM
SMILES: O=C([O-])CN(CCCCCC(=O)Nc1ccc2ncnc(Nc3cccc(Br)c3)c2c1)Cc1ccccn1.[99Tc+].[C-]#[O+].[C-]#[O+].[C-]#[O+] [Compound 5b, fac-[^99mTc(NNO)(CO)3]]
